# Source: ChEMBL document CHEMBL1201862, “PubChem BioAssay data set” (2004)
# Activity calls are given as the source filed them. Cut-off read from the data, not from the text of the source: actives have a measured IC50 and inactives only a lower limit.
# Target: Envelope glycoprotein gp160 (Human immunodeficiency virus 1, UniProt Q6QLK5)
# Assay: cell-free HIV fusion peptide-binding blockers – biochemical, uHTS, fluorescence dequenching, […] (AID 1986)
# Sequence of Envelope glycoprotein gp160 (Q6QLK5 whole entry, the tested form may be a part): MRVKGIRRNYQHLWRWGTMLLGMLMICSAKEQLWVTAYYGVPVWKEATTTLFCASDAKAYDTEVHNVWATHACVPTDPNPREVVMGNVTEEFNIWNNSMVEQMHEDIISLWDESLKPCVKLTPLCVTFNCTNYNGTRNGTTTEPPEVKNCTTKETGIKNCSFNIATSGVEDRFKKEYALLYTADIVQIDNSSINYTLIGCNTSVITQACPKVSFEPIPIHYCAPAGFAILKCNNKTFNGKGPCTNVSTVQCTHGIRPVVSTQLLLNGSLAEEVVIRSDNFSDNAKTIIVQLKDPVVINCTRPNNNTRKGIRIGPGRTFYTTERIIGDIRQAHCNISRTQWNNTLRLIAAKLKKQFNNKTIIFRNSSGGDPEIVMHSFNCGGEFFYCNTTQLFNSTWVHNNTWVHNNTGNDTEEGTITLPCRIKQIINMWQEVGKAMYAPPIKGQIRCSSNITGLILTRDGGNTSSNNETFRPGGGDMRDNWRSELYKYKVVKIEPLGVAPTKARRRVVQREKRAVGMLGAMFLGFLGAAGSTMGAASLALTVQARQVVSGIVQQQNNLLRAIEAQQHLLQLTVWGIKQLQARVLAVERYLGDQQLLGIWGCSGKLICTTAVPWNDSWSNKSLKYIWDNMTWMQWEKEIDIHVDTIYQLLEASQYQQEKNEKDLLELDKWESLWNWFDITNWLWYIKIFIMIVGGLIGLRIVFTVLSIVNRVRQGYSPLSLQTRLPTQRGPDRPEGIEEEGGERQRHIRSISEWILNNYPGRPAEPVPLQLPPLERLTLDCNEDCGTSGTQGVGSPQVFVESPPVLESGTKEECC
row,Compound,IC50
1,COc1cc(C(=O)Nc2scc(-c3ccc(Br)cc3)c2C(=O)O)cc(OC)c1OC,33.2 µM (active)
2,CC(/C=C1\SC(=S)N(C(C(=O)O)c2ccccc2)C1=O)=C\c1ccccc1 (centres undefined),46 µM (active)
3,O=C(N/N=C/c1cc(Br)c(O)c(Br)c1)c1cc2c(ccc3ccccc32)o1,15 µM (active)
4,COc1ccc(C(=O)Oc2ccc(/C=N/Nc3ccc(Cl)c(C(=O)O)c3)cc2OC)cc1,19.3 µM (active)
